Experiments:
[1] = test system: Human Embryonic Kidney (HEK293) cell; assay: cGMP accumulation assay; type: cell-based; conditions: intracellular cGMP, HEK293 cells, 30 min, with L-NAME, IBMX 100 μM and BAY 41-2272 1 μM
Method: The ability of the compounds of the invention to increase intracellular cGMP in comparison to vehicle was tested in vitro in Human Embryonic Kidney (HEK293) cell preparations. The method followed was as that reported in literature with minor modifications (Ongini et al., PNAS 2004; 101(22):8497-502. Ronchetti et al., Eur J. Pharmacol. 2006; 532(1-2):162-9).
Briefly, HEK293 cells were washed once with Hank's Balance Salt Solution (HESS) supplemented with HEPES (10 mM), MgCl2 (5 mM) and 0.05% ascorbic acid. Then they were pre-incubated for 20 min with a nitric oxide synthase inhibitor, N-nitro-L-arginine methyl ester (L-NAME) (300 μM) so to lower endogenous NO production. The cells were then exposed for 30 min to either vehicle (DMSO 1%) or increasing concentrations of test compounds (up to 100 μM) in presence of the phosphodiesterase inhibitor, 3-isobutyl-1-methylxanthine (IBMX, 100 μM) and the NO-independent activator/modulator of soluble guanylyl-cyclase, BAY 41-2272 (1 μM). The reaction was ended by the removal of the incubating buffer and the addition of 50 μl/well of 100% ice-cold ethanol. The plate was then dried under hot air steam and the cell residues dissolved, extracted and analysed using commercially available cyclic GMP enzyme immunoassay kit (Cayman Chemical, Ann Arbor, Mich., U.S.A.). Data obtained with the compounds of the present invention, expressed as % of vehicle at their respective maximal concentration (100 μM), are reported in Table 2.

[2] = test system: isolated rabbit thoracic aorta preparations; assay: Assay on vascular tone: vasorelaxation in isolated aortic rings precontracted with noradrenaline; type: cell-based; conditions: for EC50: Oryctolagus cuniculus, read-out: EC50 (μM) ± sem
Method: The ability of the compounds of the invention to induce vasorelaxation in comparison to precursor compounds, was tested in vitro in isolated rabbit thoracic aorta preparations (Wanstall J. C. et al., Br. J. Pharmacol., 134:463-472, 2001). Male New Zealand rabbits were anaesthetized with thiopental-Na (50 mg/kg, iv), sacrificed by exsanguinations and then the thorax was opened and the aorta dissected. Aortic ring preparations (4 mm in length) were set up in physiological salt solution (PSS) at 37° C. in small organ chambers (5 ml). The composition of PSS was (mM): NaCl 130, NaHCO3 14.9, KH2PO4 1.2, MgSO4 1.2, HEPES 10, […] (95% O2/5% CO2; pH 7.4). Each ring was mounted under 2 g passive tension. Isometric tension was recorded with a Grass transducer (Grass FT03) attached to a BIOPAC MP150 System. Preparations were allowed to equilibrate for 1 h, and then contracted submaximally with noradrenaline (NA, 1 μM) and, when the contraction was stable, acetylcholine (ACh, 10 μM) was added. A relaxant response to ACh indicated the presence of a functional endothelium. […] When a stable precontraction was reached, a cumulative concentration-response curve to either of the vasorelaxant agents was obtained in the presence of a functional endothelium. Each arterial ring was exposed to only one combination of inhibitor and vasorelaxant. Moreover, the effect of the soluble guanylyl cyclase inhibitor ODQ (1-H-(1,2,4)-oxadiazol(4,3-a)quinoxalin-1-one) on vasorelaxation elicited by the compounds was examined preincubating the aortic rings with ODQ (10 μM) for 20 min.
Responses to relaxing agents are expressed as a percentage of residual contraction and plotted against concentration of test compound. EC50 values (where EC50 is the concentration producing 50% of the maximum relaxation to the test compound) were interpolated from these plots. During the experimental period, the plateau obtained with NA was stable without significant spontaneous loss of contraction in the aortic rings.
Furthermore, in experiments performed in the presence of ODQ (10 μM), the vasorelaxant responses to tested compounds were inhibited.

[3] = test system: conscious spontaneously hypertensive rats (SHRs); assay: Assay for antihypertensive activity (in vivo), telemetry; set-up: species or system rat; conditions: for Δ SBP in SHR (mmHg) 2-6 hrs / Δ SBP in SHR (mmHg) 21-24 hrs / Δ SBP in SHR (mmHg) 25-48 hrs / Δ SBP in SHR (mmHg) 12 hrs: delta versus own baseline
Method: Assay for Antihypertensive Activity (In Vivo)
The ability of the compounds of the invention to decrease blood pressure was evaluated in conscious spontaneously hypertensive rats (SHRs). SHRs (250-300 g) received a single oral dose of tested compounds. Systolic blood pressure (SBP) and heart rate were monitored by telemetry for […] after dosing. SBP was evaluated before (baseline) and at different time points (i.e. 2-6, 12, 21-24, 25-48 hours) following treatment by oral administration of the compounds. The data were processed both as the absolute value or as a delta between the absolute value and its own baseline.
The Dataquest IV telemetry system (Data Sciences International) was used for measurement of systolic pressure, diastolic pressure, mean arterial pressure, heart rate, and motor activity. The monitoring system consists of a transmitter (radio frequency transducer model TA11PA), receiver panel, consolidation matrix, and personal computer with accompanying software. Before the device was implanted, calibrations were verified to be accurate within ±3 mmHg. Rats were anesthetized with ketamine/xylazine/acepromazine, and the flexible catheter of the transmitter was surgically secured in the abdominal aorta just below the renal arteries. The transmitter was sutured subcutaneously. Rats were housed in individual cages after the operation. Each cage was placed over the receiver panel that was connected to the personal computer for data acquisition. The rats were unrestrained and free to move within their cages. Hemodynamic data were sampled every 2 minutes for 10 seconds.

[4] = vasorelaxation of rabbit aortic rings precontracted with noradrenaline 1 μM, functional endothelium

SMILES	% of vehicle (mean ± sem at 100 μM) [1]	EC50 [2, 4] [µM]	also measured
O=C(CCC[C@@H](CO[N+](=O)[O-])O[N+](=O)[O-])O[C@@H]1CO[C@H]2[C@@H]1OC[C@H]2O [Example 4]	986.3 ± 90.0^ % of vehicle	0.11 ± 0.02	–
O=C(CCCCCO[N+](=O)[O-])O[C@@H]1CO[C@H]2[C@@H]1OC[C@H]2O [Example 3, (3R,3aR,6R,6aR)-6-hydroxyhexahydrofuro[3,2-b]furan-3-yl 6-(nitrooxy)hexanoate]	677.83 ± 79.6 % of vehicle	2.5 ± 0.6	–
O[C@@H]1CO[C@H]2[C@@H]1OC[C@H]2O [Isomannide, 1,4:3,6-dianhydro-D-mannitol, reference compound]	–	–	Δ SBP in SHR (mmHg) 2-6 hrs ([3]; single oral dose 2.4 mpk): −3 mmHg; Δ SBP in SHR (mmHg) 21-24 hrs ([3]; single oral dose 2.4 mpk): −6 mmHg; Δ SBP in SHR (mmHg) 25-48 hrs ([3]; single oral dose 2.4 mpk): −6 mmHg; Δ SBP in SHR (mmHg) 12 hrs ([3]; single oral dose 2.4 mpk): −9 mmHg; relaxation (concentration-response curve) ([2]; rabbit aortic rings precontracted with noradrenaline, result in words): does not produce relaxation at any of the concentration tested; EC50 (μM) ± sem [2, 4]: no effect
O=C(CCCCCO[N+](=O)[O-])O[C@@H]1CO[C@H]2[C@@H]1OC[C@H]2OC(=O)CCCCCO[N+](=O)[O-] [Example 2, (3R,3aR,6R,6aR)-hexahydrofuro[3,2-b]furan-3,6-diyl bis(6-(nitrooxy)hexanoate)]	1082.67 ± 163.4 % of vehicle	3.1 ± 0.9	–
O=C(CCC[C@H](CO[N+](=O)[O-])O[N+](=O)[O-])O[C@@H]1CO[C@H]2[C@@H]1OC[C@H]2O [Example 5, (R)-((3R,3aR,6R,6aR)-6-hydroxyhexahydrofuro[3,2-b]furan-3-yl) 5,6-bis(nitrooxy)hexanoate]	668 ± 64.7 % of vehicle	–	–
O=C(O[C@@H]1CO[C@H]2[C@@H]1OC[C@H]2O)N1CCC(O[N+](=O)[O-])CC1 [Example 7, (3R,3aR,6R,6aR)-6-hydroxyhexahydrofuro[3,2-b]furan-3-yl 4-(nitrooxy)piperidine-1-carboxylate]	–	4.4 ± 1.9	–
CC(C)(CCOC(=O)O[C@@H]1CO[C@H]2[C@@H]1OC[C@H]2O)CC(CO[N+](=O)[O-])O[N+](=O)[O-] (stereo partly drawn) [Example 8, 3,3-dimethyl-5,6-bis(nitrooxy)hexyl (3R,3aR,6R,6aR)-6-hydroxyhexahydrofuro[3,2-b]furan-3-yl carbonate]	564 ± 59.0 % of vehicle	0.06 ± 0.01	–
O=C(CCCC(CO[N+](=O)[O-])O[N+](=O)[O-])O[C@@H]1CO[C@H]2[C@@H]1OC[C@H]2O (stereo partly drawn) [Example 1, (3R,3aR,6R,6aR)-6-hydroxyhexahydrofuro[3,2-b]furan-3-yl 5,6-bis(nitrooxy)hexanoate]	1029.6 ± 80.2 % of vehicle	0.11 ± 0.03	BP lowering compared to precursor compound (isomannide) ([3]; SHR, single oral dose, result in words): BP lowering with extended peak effect and duration of action; Δ SBP in SHR (mmHg) 2-6 hrs ([3]; single oral dose 4.4 mpk): −13 mmHg; Δ SBP in SHR (mmHg) 21-24 hrs ([3]; single oral dose 4.4 mpk): −20 mmHg; Δ SBP in SHR (mmHg) 25-48 hrs ([3]; single oral dose 4.4 mpk): −16 mmHg; Δ SBP in SHR (mmHg) 12 hrs ([3]; single oral dose 4.4 mpk): −16 mmHg
O=C(CCOCC(CO[N+](=O)[O-])O[N+](=O)[O-])O[C@@H]1CO[C@H]2[C@@H]1OC[C@H]2O (stereo partly drawn) [Example 13, (3R,3aR,6R,6aR)-6-hydroxyhexahydrofuro[3,2-b]furan-3-yl 3-(2,3-bis(nitrooxy)propoxy)propanoate]	683 ± 86.3 % of vehicle	0.1 ± 0.03	–
O=[N+]([O-])OCC(CCCCO[C@@H]1CO[C@H]2[C@@H]1OC[C@H]2O)O[N+](=O)[O-] (stereo partly drawn) [Example 6, 6-((3R,3aR,6R,6aR)-6-hydroxyhexahydrofuro[3,2-b]furan-3-yloxy)hexane-1,2-diyl dinitrate]	1620 ± 205.0 % of vehicle	0.91 ± 0.33	–

Source: patent US8003811B2, “Nitric oxide donor compounds” (Nicox S.A., priority 2008, dated 2011)
